Results from PubChem BioAssay (NCI).
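Where inhibition never reached the appropriate level, the endpoint shown equals the highest concentration tested. Otherwise, values were interpolated linearly from a five-concentration, 48-hour dose response in 96-well plates. Here, GI50 denotes the concentration required for 50% inhibition of growth. TGI denotes the concentration required for complete inhibition of growth.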

Tested on: SN12K1 renal
Assay: NCI anticancer screen, dose series, 48 h

`CCC/C=C/C=C/C(=O)OC1/C(=C/C(=O)OC)CC2CC(C(C)O)OC(=O)CC(O)CC3CC(OC(C)=O)C(C)(C)C(O)(CC4C/C(=C/C(=O)OC)CC(/C=C/C(C)(C)C1(O)O2)O4)O3` (stereo not drawn) was tested, and the GI50 was greater than 11 µM and the TGI was greater than 11000 nM.

For `NC(CSC(c1ccccc1)(c1ccccc1)c1ccccc1)C(=O)O` (stereo not drawn), the TGI was 2210 nM.
